The target of data set [1] is T1, carnitine acetyltransferase (Columba livia, UniProt P52826).
T1 sequence (P52826 31-627): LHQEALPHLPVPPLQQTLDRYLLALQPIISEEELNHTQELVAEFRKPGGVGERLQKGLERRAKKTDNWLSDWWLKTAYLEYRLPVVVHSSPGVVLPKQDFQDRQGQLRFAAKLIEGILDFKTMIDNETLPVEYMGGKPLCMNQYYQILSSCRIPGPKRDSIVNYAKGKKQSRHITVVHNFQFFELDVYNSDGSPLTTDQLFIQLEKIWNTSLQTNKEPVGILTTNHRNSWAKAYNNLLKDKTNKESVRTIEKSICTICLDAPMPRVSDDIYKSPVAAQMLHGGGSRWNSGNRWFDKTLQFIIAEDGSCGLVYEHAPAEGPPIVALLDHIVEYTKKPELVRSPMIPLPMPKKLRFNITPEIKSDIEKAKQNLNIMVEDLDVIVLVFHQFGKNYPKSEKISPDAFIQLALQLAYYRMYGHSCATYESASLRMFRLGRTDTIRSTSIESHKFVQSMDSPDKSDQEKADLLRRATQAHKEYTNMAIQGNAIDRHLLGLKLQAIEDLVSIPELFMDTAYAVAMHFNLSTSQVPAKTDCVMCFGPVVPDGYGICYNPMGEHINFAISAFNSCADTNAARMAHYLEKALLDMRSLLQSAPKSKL
In words: carnitine acetyltransferase inhibition assay (coupled CS/MDH, NADH at 340 mμ). The format is biochemical. The protocol: D,L-3-acetamido-4-trimethylaminobutyric acid.H2 O, referred to hereinafter as AAC, was assayed for inhibition of carnitine acetyltransferase.
The procedure used is described in Fritz, I. B., Schultz, S. K., and Srere, P. A., "Properties of Partially Purified Carnitine Acetyltransferase", J. Biol. Chem., 238, 2509-2517 (1963).
The assay was based on the following reactions wherein CAT is used to denote carnitine acetyltransferase, CS is used to denote citrate synthase, MDH is used to denote malate dehydrogenase, NAD is used to denote β-nicotinamide adenine dinucleotide (unreduced form) and NADH is used to denote β-nicotinamide adenine dinucleotide (reduced form):
The assay is based on the fact that the velocity of reaction to produce acetyl-Coenzyme A is reduced to the extent that CAT is inhibited. Reactions (2) and (3) are a detection system for acetyl-Coenzyme A wherein acetyl-Coenzyme A, as it is produced, reacts with oxaloacetate thereby causing the MDH to catalyze production of oxaloacetate to replace that which is used and resulting in production of NADH which is detected using a spectrophotometer based on its property of absorbing light at 340 mμ. Thus, when CAT is bound and inhibited, the rate of NADH production is decreased and the rate of increase of absorbency at 340 mμ is decreased. The results are readily compiled in a Lineweaver-Burk plot of the reciprocal of reaction velocity versus the reciprocal of concentration of acetylcarnitine and the data can be analyzed to o provide Ki ' values as mentioned above.
Sixteen runs were carried out. They consisted of a set of 4 runs where 1 mM of D,L-acetylcarnitine (pH 8.0) was included, a set of 4 runs where 2 mM of D,L-acetylcarnitine was included, a set of 4 runs where 5 mM of D,L-acetylcarnitine was included and a set of 4 runs where 10 mM of D,L-acetylcarnitine was included. In each set of runs, one run was conducted without AAC, one run was conducted with 0.1 mM AAC, one run was conducted with 0.5 mM AAC, and one run was conducted with 1.0 mM AAC.
Each run was carried out utilizing a cuvette with 1 ml total being added to it. To each cuvette was added 0.7 ml of a premix of aqueous solutions of Tris-HCl buffer, NAD^+, dithiothreitol, and Tris D,L-malate, pH of 8.0 (concentrations in the premix were as follows: Tris-HCl, 143 mM; NAD^+, 0.71 mM; dithiothreitol, 4.3 mM; and Tris D,L-malate, 14.3 mM, the selected amount of D,L-acetylcarnitine as described above, 0.05 ml of a 4 mM aqueous solution of Coenzyme A, 0.025 ml of a 168 units/ml solution of CS, 0.025 ml of a 240 units/ml solution of MDH, the selected amount of AAC as described above, and water to 0.995 ml. The D,L-acetylcarnitine was added utilizing solution of concentration of 100 mM (in other words 0.010 ml for the first set of runs, 0.020 ml for the second set of runs, 0.050 ml for the third set of runs, 0.100 ml for the fourth set of runs). The AAC was added utilizing solution of concentration of 100 mM (in other words, additions for runs in each set were of 0 ml, 0.001 ml, 0.005 ml and 0.010 ml).
After the above described reactants were added, each cuvette and its contents were incubated for 15 minutes at 30° C.
Directly after the incubation period, 0.005 ml of CAT (concentration 5 units/ml) was added in each case.
The reaction rate in each case was measured as described above as a function of change in absorbance at 340 mμ (providing a time course of NADH formation) and was expressed as mole NADH/min. (1 mM NADH =6.2×ΔA340).
A Ki 'value for the D,L form of AAC was calculated to be 5×10^-5 M which is 10^-2 to 10^-3 times the Ki ' values found by Fritz and Schultz for the compounds they tested.

Data set [2] in a line: toxicity of administered amount in mice. In kind it is in vivo. As to conditions: 5 mmol/kg intraperitoneally. The protocol:
(§1) Four mice were injected subcutaneously with 0.5 mmol/kg carbon 14 tagged acetylcarnitine. Two of them were injected intraperitoneally with 5 mmol/kg of AAC. The carbon 14 CO2 output of the mice was monitored every 15 minutes for 6 hours and for each mouse a graph was prepared with time on the X-axis and % of radiolabelled CO2 on the Y-axis. […] The amount of AAC administered was not toxic to the mice.

Another data set has as its target T2, CAT (Mus musculus, UniProt P47934).
T2 construct: from tissue; host or cells: whole living mice (endogenous enzyme)
T2 sequence (P47934 1-626): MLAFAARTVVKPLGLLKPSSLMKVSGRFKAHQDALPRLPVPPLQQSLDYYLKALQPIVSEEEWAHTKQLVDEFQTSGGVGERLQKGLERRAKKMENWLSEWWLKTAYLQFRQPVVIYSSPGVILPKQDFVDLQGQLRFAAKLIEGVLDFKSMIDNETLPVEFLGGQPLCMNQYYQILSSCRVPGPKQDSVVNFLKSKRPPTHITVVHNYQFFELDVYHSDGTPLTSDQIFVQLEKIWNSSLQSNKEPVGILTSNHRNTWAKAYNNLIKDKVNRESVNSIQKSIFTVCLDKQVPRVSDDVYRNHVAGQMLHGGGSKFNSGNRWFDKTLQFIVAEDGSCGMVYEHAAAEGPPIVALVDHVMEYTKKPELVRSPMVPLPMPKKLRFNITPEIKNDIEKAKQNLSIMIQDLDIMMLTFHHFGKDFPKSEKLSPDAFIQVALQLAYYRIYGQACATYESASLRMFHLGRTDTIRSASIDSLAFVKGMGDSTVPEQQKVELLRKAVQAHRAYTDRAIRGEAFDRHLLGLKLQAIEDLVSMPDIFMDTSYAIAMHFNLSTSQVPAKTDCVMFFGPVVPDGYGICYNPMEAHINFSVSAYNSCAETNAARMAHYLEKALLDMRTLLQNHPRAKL
In words: carbon 14 CO2 output of mice given carbon 14 tagged acetylcarnitine. The format is in vivo. To be noted: 5 mmol/kg intraperitoneally, 0.5 mmol/kg carbon 14 acetylcarnitine subcutaneously, monitored 6 hours. The protocol: as §1

Data set [3] deals with carnitine palmitoyltransferase. Nature of the data set: binding and inhibition of carnitine palmitoyltransferase. The format is biochemical. As to conditions: no test described.
For data set [4] the following is noted: cited from earlier work.

On to `CC(=O)NC(CC(=O)[O-])C[N+](C)(C)C` (racemic) [AAC, D,L-3-acetamido-4-trimethylaminobutyric acid.H2 O], for which, in data set [1], the “Ki' relative to the Ki' values found by Fritz and Schultz for the compounds they tested” value is 10^-2 to 10^-3 times; the “reversibility of binding action” value is recorded as “reversible by dilution”. In data set [1] (D,L form, Lineweaver-Burk plot, 1-10 mM D,L-acetylcarnitine, pH 8.0, 30° C), the affinity corresponds to a Ki of 50 µM. In addition, the “mode of inhibition of CAT” value in data set [1] (Lineweaver-Burk plot, same site as acetyl carnitine) is “competitive inhibitor”. For the same compound, the inhibition (as a rule, the change of the read-out against control, counted positive when it falls) at 100 µM in data set [1] (at a concentration of 0.1 mM, read-out: inhibition of formation of acetyl-Coenzyme A) worked out at 34%. Also, the inhibition at 500 µM in data set [1] (at a concentration of 0.5 mM, read-out: inhibition of formation of acetyl-Coenzyme A) worked out at 67%. Moreover, in data set [1] (at a concentration of 1 mM, read-out: inhibition of formation of acetyl-Coenzyme A), the inhibition at 1000 µM came out at 81%. For the same compound, the “binding to CAT relative to acetylcarnitine (times more tightly)” value in data set [1] (from Lineweaver-Burk plot) amounted to 18 times. The “toxicity of the amount administered” value in data set [2] was “not toxic”. The “rate of radiolabelled CO2 output” value on CAT is “retarded rate of radiolabelled CO2 output”.
Take `CCCCCCCCCCCCCCCC(=O)NC(CC(=O)[O-])C[N+](C)(C)C` (racemic) [PAC, D,L-3-palmitoamido-4-trimethylaminobutyric acid.H2 O]: the “binding and inhibition of carnitine palmitoyltransferase” value in data set [3] was “readily binds to and inhibits carnitine palmitoyltransferase”.
For the compound `C[N+](C)(C)CC(CC(=O)[O-])NC(=O)CBr` (racemic) [D,L-3-bromoacetamido-4-trimethylaminobutyricacid.H2 O], the “reversibility of binding action” value in data set [1] is “irreversible”. The “inhibition of CAT” value in data set [1] (no test described) is given as “inhibits CAT similarly to AAC”.
Consider `C[N+](C)(C)CC(CC(=O)[O-])OC(=O)CBr` [Bromoacetyl-L-carnitine], for which the toxicity in vivo result in data set [4] is reported as “toxicity due to release of bromine and/or bromoacetate”.
